The values below come from patent US11844350B2, “Plant growth regulation” (Syngenta Participations AG, priority 2017, dated 2023).

This assay concerns rice (Oryza sativa L.) varieties ADT45. In words: Plant growth regulation field trial in rice, India (lodging, plant height, heat stress symptoms). The class given is in vivo. As to the method:
Field trials were setup during the hot season in Annanagar and Kumbakonam in India. Local rice (Oryza sativa L.) varieties ADT45 was mechanically transplanted at four plants per hill with a plant spacing of 16 cm and a row spacing of 30 cm. All trials were performed in good level of water management. Fertilizer application, and weed, insect and disease control were carried out in accordance with the best local practice across the trial area. Commercial treated seeds were used (with no neonicotinoid compounds present).
The trial design was a randomized bloc design, with a plot size of 40 m^2 (12 rows, each […] and 10 m long); each trial had four replicates.
Overall trial quality was very high: there was no insect damage and no disease pressure or weeds; the plots were very homogenous. Heat stress level was low to medium with 5-10% empty spikelets in the untreated control.

As to `COc1cccc(Nc2nc(F)nc3[nH]cnc23)c1` [Formula (Ia)], the “Lodging (%)” value by setting is: (10 g ai/ha, applied at panicle initiation (BBCH 30)) 29.0%; (20 g ai/ha, applied at BBCH 30) 56.0%. For the same compound, under “result in words”, the “Lodging compared to the untreated control” value was “significantly reduces lodging”.
